Test results taken from patent US10138466B2, “Compositions and methods for differentiating stem cells into cell populations comprising beta-like cells” (REGENERATIVE MEDICAL SOLUTIONS, INC., priority 2014, dated 2018).

How the values were obtained:
differentiated cells = assay: GSIS test of differentiated cells with Warfarin in stage 6 medium; format: cell-based, human
Method: 300 ng/ml Noggin was added in step 4 and 10 uM ALK5i was added in step 5. In the final step, cells were transferred from transwell to suspension culture (in low attachment wells or flasks). […]
Warfarin was added at stage 6.

[1] = system: iPS derived beta-cell clusters; assay: Response of iPS derived beta-cell clusters to tolbutamide; format: cell-based, human
Method: Experiments were conducted to determine the effect of shipping induced islet cells on Transwells. Cells were differentiated according to the protocol described in Example 15. (ProgenMixIII). Total differentiation time was 27 days and the final product was islet-like-clusters (ILCs) in suspension. On the day of shipment, ILCs were counted and divided into individual mouse dosages: one mouse dosage per bottle. Cells were sent by FedEx overnight at 4° C. using cold packs. Leftover ILCs from shipment were used as controls.
Results are shown in FIGS. 36-42. iPS derived beta-cell clusters responded to glucose challenge and tolbutamide, a KATP channel closer.

T cell = conditions: high concentrations (1 μg/mL), murine models of T1D; cited from earlier work
NKX6.1 expression = assay: EGF at stage 5 of differentiation, NKX6.1 expression; format: cell-based, human; conditions: Ten to fifty ng/ml EGF at stage 5
Method: EGF was added at stage 5.

## CC(=O)CC(c1ccccc1)c1c(O)c2ccccc2oc1=O (stereo not drawn) [Warfarin]
Differentiated cells; 2 uM Warfarin in stage 6
  SI (stimulation index) in GSIS test: 3.0
Differentiated cells; 5 uM Warfarin in stage 6
  SI (stimulation index) in GSIS test: 3.8
Differentiated cells; warfarin in the final media
  stimulation index in GSIS test: significantly increased

## CCCCNC(=O)NS(=O)(=O)c1ccc(C)cc1 [tolbutamide]
[1]
  response to tolbutamide, a KATP channel closer: responded

## CXCL12: immune modulating chemokine, T-cell chemorepellent
T cell
  action on T cells: T cell chemorepellent

## EGF: growth factor added at stage 5 of differentiation
NKX6.1 expression
  NKX6.1 expression at end: enhance NKX6.1 expression
